Key:
mice [1] = assay: Electric shock induced convulsions; format: in vivo, Swiss mice
Procedure: Convulsion were induced by a single electroshock (50 Hz in frequency, 0.5 ms pulse width, 50 mA current for 0.3 s) applied through bi-polar electrodes attached to the ear pinna on both side using a pulse generator (Ugo Basile, Italy). The convulsive activity (determined by loss of tonic extensor seizure) was recorded in control (untreated) and Compound I were treated (before electro-shock application) animals [Achliya, G S, Wadodkar, S G, Darle, A K., Evaluation of CNS activity of Bramhi Ghrita. Indian J. Pharmacol. 37 (2005) 33-36].
Anti-convulsant activity was measured by electric shock induced seizure. Five Swiss mice were used for one dose of drug. Convulsion were induced by a single electroshock (50 Hz in frequency, 0.5 ms pulse width, 50 mA current for 0.3 s) applied through bi-polar electrodes attached to the ear pinna on both side by a pulse generator (Ugo Basile, Italy) Test drug were administered orally 60 min before electroshock application, and convulsive activity was determined by loss of tonic extensor seizure.

mice [2] = assay: Pentobarbitone induced sleeping time; format: in vivo; conditions: pentobarbitone 50 mg/kg (i.p) alone
Procedure: Compound I was administered to mice perorally. […] were administered with sodium pentobarbitone (50 mg/kg, ip). Sleeping time (No righting reflex) (in min) was determined for the control (untreated) and D8 treated animals [Montilla, M P., Cabo, J., Navarro, M C., Risco, S., Jimmenez R S., Aneires, J., The protective and curative action of Withania frutescens leaf extract against CCl4-induced hepatotoxicity. Phytother. Res. 4 (1990) 212-215].

PDE-4 = assay: Phosphodiesterase 4 assay, [3H]cAMP SPA enzyme assay, enzyme preparation from rat heart; format: biochemical
Procedure: For phosphodiesterase (PDE-4) assay, enzyme preparations were performed from rat heart (Ko et al 2004, Biochemical Pharmacology 68:2087-2094). Heart was excised from anesthetized rat and transfer into normal saline solution. Heart weighing 687 mg was taken and homogenized in 2.5 volumes of homogenization buffer containing 20 mM Tris-Cl, 50 mM NaCl, 2 mM EDTA, 0.1 mM PMSF, […], protease inhibitors 1 μg/μl. The homogenate was centrifuged at 500×g for 5 minute at 4° C. Then sup was taken for further centrifuged at 40,000×g for 30 minute (ultra centrifugation). After centrifugation supernatant was collected for phosphodiesterase assay. Protein concentration was estimated and for each assay, 2.5 μg protein (PDE enzyme preparation) was used. All compounds tested for PDE 4 activity were dissolved in DMSO.
Phosphodiesterase 4 assay: Phosphodiesterase 4 assay was conducted with [^3H] cAMP SPA enzyme assay (GE Amersham, UK) using 2.5 μg enzyme preparation for each well. Into each well 60 μl water, 10 μl assay buffer supplied with the kit, 10 μl compound (inhibitor), 10 μl PDE enzyme or homogenizing buffer (blank) and […] radiolabel led cAMP ([^3H]cAMP, GE Amersham, UK) were added. To check activity of the enzyme without inhibitor (compound) 10 μl DMSO was added in place of inhibitor to a separate well. The reaction mixtures were incubated for […] at 30° C. The reaction was stopped by adding 50 μl SPA bead supplied with the kit. It was then mixed well and allowed to stand at room temperature for 20 min. Breakdown of cAMP in each tube was monitored by β counter. The reading in each tube was obtained in counts per minute (CPM). The reading of the blank tube (without enzyme) was subtracted from each tube to normalize the counts. The enzyme activity was calculated by considering the CPM reading without any inhibitor (compound) as 100.

## CCC1(c2ccccc2)C(=O)NC(=O)NC1=O [Phenobarbitone, reference compound]
Mice [1]; 30 mg/kg p.o.
  Convulsions Clonic: 0/5
  Convulsions Tonic: 0/5
  Mortality: 0/5
Mice [1]; positive control
  anti-convulsant activity: significant anti-convulsant activity

## CCCC(C)C1(CC)C(=O)NC(=O)NC1=O (centres unmarked) [Pentobarbitone]
Mice [2]
  Sleeping Time (Minutes ± SEM): 75.6 ± 9.4 min

## COc1cc(COC(C)=O)cc2c1[nH]c1ccccc12 [V]
PDE-4; 0.1 μg/ml
  % of Inhibition: 0%
PDE-4; 1 μg/ml
  % of Inhibition: 11.80%
PDE-4; 10 μg/ml
  % of Inhibition: 44.2%
